Data from patent publication US20230085307A1, “PYRIDAZINONE COMPOUND AND HERBICIDE” (NISSAN CHEMICAL CORPORATION, priority 2019, published 2023).

Tests used:
[1] = test system: barnyard grass; assay: Test Example 3: herbicidal effect by foliage application, Wagner pot (Table 18, symbol H); type: in vivo, barnyard grass (Echinochloa crus-galli)
Procedure, shortened: (§1)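 Plants were sown in alluvial soil held under 0.1–0.5 cm standing water and grown 14 days in a greenhouse at 25–30 °C. An emulsifiable formulation, water-diluted to the set dose, was then sprayed onto the foliage, and effects were scored three weeks later using previously defined criteria.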

[2] = test system: Chinese sprangletop; assay: Test Example 3: herbicidal effect by foliage application, Wagner pot (Table 18, symbol D); type: in vivo, chinese sprangletop (Leptochloa chinensis)
Procedure, shortened: as §1

[3] = test system: rice flat sedge; assay: Test Example 3: herbicidal effect by foliage application, Wagner pot (Table 18, symbol E); type: in vivo, rice flat sedge (Cyperus iria)
Procedure, shortened: as §1

[4] = test system: southern crabgrass; assay: Test Example 4: herbicidal effect by soil treatment (Table 19, symbol F); type: in vivo, southern crabgrass (Digitaria ciliaris); details: amount of applied herbicide 320 g/ha
Procedure, shortened: (§2)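 Scoring uses the grading scale of an earlier test, three weeks post-application. Treatment consists of spraying a diluted emulsion formulation across the surface of sterilized diluvial soil in which seeds are buried near 1.5 cm deep; boxes are kept in a greenhouse between 25° C. and 30° C.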

[5] = test system: green foxtail; assay: Test Example 4: herbicidal effect by soil treatment (Table 19, symbol G); type: in vivo, green foxtail (Setaria viridis); details: amount of applied herbicide 320 g/ha
Procedure, shortened: as §2

[6] = test system: barnyard grass; assay: Test Example 4: herbicidal effect by soil treatment (Table 19, symbol H); type: in vivo, barnyard grass (Echinochloa crus-galli); details: amount of applied herbicide 320 g/ha
Procedure, shortened: as §2

[7] = test system: wild oat; assay: Test Example 4: herbicidal effect by soil treatment (Table 19, symbol I); type: in vivo, wild oat (Avena fatua); details: amount of applied herbicide 320 g/ha
Procedure, shortened: as §2

[8] = test system: blackgrass; assay: Test Example 4: herbicidal effect by soil treatment (Table 19, symbol J); type: in vivo, blackgrass (Alopecurus myosuroides); details: amount of applied herbicide 320 g/ha
Procedure, shortened: as §2

[9] = test system: Italian ryegrass; assay: Test Example 4: herbicidal effect by soil treatment (Table 19, symbol K); type: in vivo, Italian ryegrass (Lolium multiflorum); details: amount of applied herbicide 320 g/ha
Procedure, shortened: as §2

[10] = test system: windgrass; assay: Test Example 4: herbicidal effect by soil treatment (Table 19, symbol L); type: in vivo, windgrass (Apera spica-venti); details: amount of applied herbicide 320 g/ha
Procedure, shortened: as §2

[11] = test system: velvetleaf; assay: Test Example 4: herbicidal effect by soil treatment (Table 19, symbol M); type: in vivo, velvetleaf (Abutilon theophrasti); details: amount of applied herbicide 320 g/ha
Procedure, shortened: as §2

[12] = test system: redroot pigweed; assay: Test Example 4: herbicidal effect by soil treatment (Table 19, symbol N); type: in vivo, redroot pigweed (Amaranthus retroflexus); details: amount of applied herbicide 320 g/ha
Procedure, shortened: as §2

[13] = test system: lambsquarters; assay: Test Example 4: herbicidal effect by soil treatment (Table 19, symbol O); type: in vivo, lambsquarters (Chenopodium album); details: amount of applied herbicide 320 g/ha
Procedure, shortened: as §2

[14] = test system: chickweed; assay: Test Example 4: herbicidal effect by soil treatment (Table 19, symbol P); type: in vivo, common chickweed (Stellaria media); details: amount of applied herbicide 320 g/ha
Procedure, shortened: as §2

[15] = test system: persian speedwell; assay: Test Example 4: herbicidal effect by soil treatment (Table 19, symbol R); type: in vivo, Persian speedwell (Veronica persica); details: amount of applied herbicide 320 g/ha
Procedure, shortened: as §2

[16] = test system: southern crabgrass; assay: Test Example 5: herbicidal effect by foliage application, plastic box (Table 20, symbol F); type: in vivo, southern crabgrass (Digitaria ciliaris); details: foliage application, 320 g/ha, evaluated three weeks after application
Procedure, shortened: (§3)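 Post-emergence foliar test in sterilized diluvial soil. Compound applied as water-diluted emulsion at a predetermined rate to 14-day-old plants; evaluation at three weeks.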

[17] = test system: green foxtail; assay: Test Example 5: herbicidal effect by foliage application, plastic box (Table 20, symbol G); type: in vivo, green foxtail (Setaria viridis); details: foliage application, 320 g/ha, evaluated three weeks after application
Procedure, shortened: as §3

[18] = test system: barnyard grass; assay: Test Example 5: herbicidal effect by foliage application, plastic box (Table 20, symbol H); type: in vivo, barnyard grass (Echinochloa crus-galli); details: foliage application, 320 g/ha, evaluated three weeks after application
Procedure, shortened: as §3

[19] = test system: wild oat; assay: Test Example 5: herbicidal effect by foliage application, plastic box (Table 20, symbol I); type: in vivo, wild oat (Avena fatua); details: foliage application, 320 g/ha, evaluated three weeks after application
Procedure, shortened: as §3

[20] = test system: blackgrass; assay: Test Example 5: herbicidal effect by foliage application, plastic box (Table 20, symbol J); type: in vivo, blackgrass (Alopecurus myosuroides); details: foliage application, 320 g/ha, evaluated three weeks after application
Procedure, shortened: as §3

[21] = test system: Italian ryegrass; assay: Test Example 5: herbicidal effect by foliage application, plastic box (Table 20, symbol K); type: in vivo, Italian ryegrass (Lolium multiflorum); details: foliage application, 320 g/ha, evaluated three weeks after application
Procedure, shortened: as §3

[22] = test system: windgrass; assay: Test Example 5: herbicidal effect by foliage application, plastic box (Table 20, symbol L); type: in vivo, windgrass (Apera spica-venti); details: foliage application, 320 g/ha, evaluated three weeks after application
Procedure, shortened: as §3

[23] = test system: velvetleaf; assay: Test Example 5: herbicidal effect by foliage application, plastic box (Table 20, symbol M); type: in vivo, velvetleaf (Abutilon theophrasti); details: foliage application, 320 g/ha, evaluated three weeks after application
Procedure, shortened: as §3

[24] = test system: redroot pigweed; assay: Test Example 5: herbicidal effect by foliage application, plastic box (Table 20, symbol N); type: in vivo, redroot pigweed (Amaranthus retroflexus); details: foliage application, 320 g/ha, evaluated three weeks after application
Procedure, shortened: as §3

[25] = test system: lambsquarters; assay: Test Example 5: herbicidal effect by foliage application, plastic box (Table 20, symbol O); type: in vivo, lambsquarters (Chenopodium album); details: foliage application, 320 g/ha, evaluated three weeks after application
Procedure, shortened: as §3

[26] = test system: chickweed; assay: Test Example 5: herbicidal effect by foliage application, plastic box (Table 20, symbol P); type: in vivo, common chickweed (Stellaria media); details: foliage application, 320 g/ha, evaluated three weeks after application
Procedure, shortened: as §3

[27] = test system: false cleavers; assay: Test Example 5: herbicidal effect by foliage application, plastic box (Table 20, symbol Q); type: in vivo, false cleavers (Galium spurium); details: foliage application, 320 g/ha, evaluated three weeks after application
Procedure, shortened: as §3

[28] = test system: persian speedwell; assay: Test Example 5: herbicidal effect by foliage application, plastic box (Table 20, symbol R); type: in vivo, Persian speedwell (Veronica persica); details: foliage application, 320 g/ha, evaluated three weeks after application
Procedure, shortened: as §3

[29] = amount of applied herbicide 320 g/ha

Structure (SMILES)	F: southern crabgrass, herbicidal effect rating [4]	G: green foxtail, herbicidal effect rating [5]	H: barnyard grass, herbicidal effect rating [6]	I: wild oat, herbicidal effect rating [7]	J: blackgrass, herbicidal effect rating [8]	K: Italian ryegrass, herbicidal effect rating [9]	L: windgrass, herbicidal effect rating [10]	M: velvetleaf, herbicidal effect rating [11]	N: redroot pigweed, herbicidal effect rating [12]	O: lambsquarters, herbicidal effect rating [13]	P: chickweed, herbicidal effect rating [14]	R: persian speedwell, herbicidal effect rating [15]	herbicidal effect on F: southern crabgrass [16]	herbicidal effect on G: green foxtail [17]	herbicidal effect on H: barnyard grass [18]	herbicidal effect on I: wild oat [19]	herbicidal effect on J: blackgrass [20]	herbicidal effect on K: Italian ryegrass [21]	herbicidal effect on L: windgrass [22]	herbicidal effect on M: velvetleaf [23]	other results
COc1ccc(-c2sc3ccc(Cl)cc3c2-c2c(O)c(C)nn(C)c2=O)cc1 [2-103]	0 (Herbicidal rate of 5% or less (almost no effect))	0 (Herbicidal rate of 5% or less (almost no effect))	0 (Herbicidal rate of 5% or less (almost no effect))	0 (Herbicidal rate of 5% or less (almost no effect))	0 (Herbicidal rate of 5% or less (almost no effect))	0 (Herbicidal rate of 5% or less (almost no effect))	0 (Herbicidal rate of 5% or less (almost no effect))	3 (Herbicidal rate of 40% or more and less than 70%)	4 (Herbicidal rate of 70% or more and less than 90%)	4 (Herbicidal rate of 70% or more and less than 90%)	4 (Herbicidal rate of 70% or more and less than 90%)	5 (Herbicidal rate of 90% or more (almost completely withered))	0 (Herbicidal rate of 5% or less (almost no effect))	0 (Herbicidal rate of 5% or less (almost no effect))	0 (Herbicidal rate of 5% or less (almost no effect))	0 (Herbicidal rate of 5% or less (almost no effect))	1 (Herbicidal rate of 5% or more and less than 20%)	0 (Herbicidal rate of 5% or less (almost no effect))	5 (Herbicidal rate of 90% or more (almost completely withered))	4 (Herbicidal rate of 70% or more and less than 90%)	herbicidal effect on H (barnyard grass), rating 0-5 ([1]; 320 g/ha): 3 (Herbicidal rate of 40% or more and less than 70%); herbicidal effect on D (Chinese sprangletop), rating 0-5 ([2]; 320 g/ha): 2 (Herbicidal rate of 20% or more and less than 40%); herbicidal effect on E (rice flat sedge), rating 0-5 ([3]; 320 g/ha): 5 (Herbicidal rate of 90% or more (almost completely withered)); herbicidal effect on N: redroot pigweed [24]: 3 (Herbicidal rate of 40% or more and less than 70%); herbicidal effect on O: lambsquarters [25]: 4 (Herbicidal rate of 70% or more and less than 90%); herbicidal effect on P: chickweed [26]: 5 (Herbicidal rate of 90% or more (almost completely withered)); herbicidal effect on Q: false cleavers [27]: 3 (Herbicidal rate of 40% or more and less than 70%); herbicidal effect on R: persian speedwell [28]: 5 (Herbicidal rate of 90% or more (almost completely withered))
COc1ccc(-c2sc3ccc(Cl)cc3c2-c2c(O)c(C)nn(C)c2=O)cc1OC [2-123]	0 (Herbicidal rate of 5% or less (almost no effect))	0 (Herbicidal rate of 5% or less (almost no effect))	0 (Herbicidal rate of 5% or less (almost no effect))	0 (Herbicidal rate of 5% or less (almost no effect))	0 (Herbicidal rate of 5% or less (almost no effect))	0 (Herbicidal rate of 5% or less (almost no effect))	0 (Herbicidal rate of 5% or less (almost no effect))	0 (Herbicidal rate of 5% or less (almost no effect))	0 (Herbicidal rate of 5% or less (almost no effect))	4 (Herbicidal rate of 70% or more and less than 90%)	3 (Herbicidal rate of 40% or more and less than 70%)	4 (Herbicidal rate of 70% or more and less than 90%)	0 (Herbicidal rate of 5% or less (almost no effect))	0 (Herbicidal rate of 5% or less (almost no effect))	0 (Herbicidal rate of 5% or less (almost no effect))	0 (Herbicidal rate of 5% or less (almost no effect))	4 (Herbicidal rate of 70% or more and less than 90%)	2 (Herbicidal rate of 20% or more and less than 40%)	1 (Herbicidal rate of 5% or more and less than 20%)	3 (Herbicidal rate of 40% or more and less than 70%)	herbicidal effect on H: barnyard grass [1, 29]: 3 (Herbicidal rate of 40% or more and less than 70%); herbicidal effect on D: Chinese sprangletop [2, 29]: 0 (Herbicidal rate of 5% or less (almost no effect)); herbicidal effect on E: rice flat sedge [3, 29]: 5 (Herbicidal rate of 90% or more (almost completely withered)); herbicidal effect on N: redroot pigweed [24]: 0 (Herbicidal rate of 5% or less (almost no effect)); herbicidal effect on O: lambsquarters [25]: 2 (Herbicidal rate of 20% or more and less than 40%); herbicidal effect on P: chickweed [26]: 5 (Herbicidal rate of 90% or more (almost completely withered)); herbicidal effect on Q: false cleavers [27]: 1 (Herbicidal rate of 5% or more and less than 20%); herbicidal effect on R: persian speedwell [28]: 5 (Herbicidal rate of 90% or more (almost completely withered))
